Reference: US20240335431A1, “1-H-PYRROLO[2,3-c]PYRIDINE COMPOUNDS” (Acerta Pharma B.V., priority 2023, published 2024)
Like-named read-outs stand apart in the source and are kept apart here.

Key:
[1] = test system: MOLM-13 cells; assay: Proliferation assay, MOLM-13 (CellTiter-Glo, 7 days); format: cell-based, human
Procedure: (§1) The anti-proliferative effect of compounds was tested in human leukaemia cell lines. The cell lines […] and MV4; 11 each harbor an MLL translocation expressing the MLL fusion proteins MLL-AF9 and MLL-AF4, respectively. Each also express the wildtype protein from the second allele. OCI-AML3 cells carrying the NPM1c gene mutation were also tested.
(§2) MOLM-13 and HEL cells were cultured in RPMI 1640 (Gibco) supplemented with 10% FBS (Gibco) and 1% Pen/Strep (Gibco). MV4; 11 cells were cultured in IMDM (Gibco) supplemented with 10% FBS (Gibco) and 1% Pen/Strep (Gibco). OCI-AML3 cells were cultured in MEMa (Gibco) supplemented with 20% FBS (Gibco) and 1% Pen/Strep (Gibco).
(§3) To assess proliferative effects, 125 MOLM-13 cells, 300 MV4; 11 cells, 75 OCI-AML3 cells, and 200 HEL cells were seeded in 40 μL media per well in 384-well ViewPlates (Perkin Elmer, 6007480). Cell seeding numbers were chosen based on growth curves to ensure linear growth throughout the experiments. Test compounds were added at 3.16-fold serial dilutions in DMSO from […] and DMSO content was normalized to 0.1%. Cells were incubated for 7 days at 37° C. and 5% CO2. A day 0 plate was seeded for each cell line and used as a standard control.
(§4) To measure cell viability, CellTiter-Glo 2.0 (Promega, G9242) luminescent growth indicator was used. 10 μL CellTiter-Glo reagent was added per well. Plates were placed on a plate shaker for 2 minutes in the dark and left to incubate off the shaker for another 8 minutes in the dark, for a total of 10 minutes. Plates were read using an EnVision plate reader (Perkin Elmer) using the Luminescence aperture and a measurement time of 0.1 second.
(§5) Data were analyzed in Genedata Screener®. IC50 values were determined by plotting % inhibition versus log compound concentration and using a one site dose response model. Raw data signals were normalized using 0.1% DMSO media only as background control, 0.1% DMSO with cells no compound as 100% viability (maximum signal), and day 0 0.1% DM with cells no compound as 0% viability (minimum signal).

[2] = test system: HEL cells; assay: Proliferation assay, HEL control cell line (CellTiter-Glo, 7 days); format: cell-based, human; details: Homo sapiens, HEL, 168 h
Procedure: as §1, §2, §3, §4, §5

[3] = Human liver microsomes (HLMs) intrinsic clearance assay; format: in vitro ADME; details: human, microsomes; for HLM CLint: 1 µM, pH 7.4
Procedure: Human liver microsomes (HLMs) were obtained from Corning (UltraPool 150 donors) at a concentration of 20 mg/mL protein. HLMs were stored at −80° C. until use and prior to use, thawed in a 37° C. water bath and then stored on wet ice. DMSO and NADPH were sourced from Solarbio S&T Co Ltd.
2 mL of 10 mM DMSO stock solutions of test compound were added to 198 mL acetonitrile to produce […] concentration. 1325 mL of 20 mg/mL HLM were added to 22260 mL of phosphate buffer to produce the HLM mixture. An 8.334 mg/mL solution of NADPH was prepared in 100 mmol/L pH 7.4 phosphate buffer.
222.5 mL of the HLM mixture and 25 mL of the 10 mM NADPH were added into the incubation plates (1 mL 96 well deep well plate from Thermo). The mixture was vortexed for 10 seconds at 1000 rpm. The incubation plate was pre-warmed in a water bath at 37° C. for 8 minutes. 2.5 mL of the […] stocks of test compound was added to initiate the reaction. The mix was vortexed for 12 seconds at 1000 rpm and incubated at 37° C. The incubation mixture (250 mL) contained 1 mg/mL HLM, 1 mmol/L NADPH and […].
The reaction was quenched by transferring 20 mL of the incubation mixture at 0.5, 5, 10, 15, 20 and 30 minutes into the quenching plate containing 100 mL of cold stop solution (acetonitrile containing internal standards). The plate was vortexed at 800 rpm for 2 minutes.
The quenching plates were centrifuged for 20 minutes at 4000 rpm and 4° C. 40 mL of the supernatant was transferred into a 96-well analysis plate containing 160 mL of water. The analysis plate was shaken at 1000 rpm for 2 minutes and the samples analysed by LC-MS/MS.
Peak areas were determined from extracted ion chromatograms. Percent parent remaining was calculated from peak area of test compound. The slope value, k, was determined by linear regression of the natural logarithm of percent parent remaining versus incubation time. The in vitro half-life (t1/2) was determined from the slope value by the equation: […]
Conversion of the in vitro half-life (min) into in vitro CLint (mL/min/mg proteins) was completed using the equation: […]

[4] = test system: MV4;11 cells; assay: Proliferation assay, MV4;11 (CellTiter-Glo, 7 days); format: cell-based, human; details: Homo sapiens, MV4-11, 168 h, read-out: MV-4-11 IC50
Procedure: as §1, §2, §3, §4, §5

[5] = test system: OCI-AML3 cells; assay: Proliferation assay, OCI-AML3 (CellTiter-Glo, 7 days); format: cell-based, human; details: Homo sapiens, OCI-AML-3, 168 h
Procedure: as §1, §2, §3, §4, §5

[6] = target: hERG (Homo sapiens (Human), UniProt Q12809); assay: hERG assay 1 (standard), SyncroPatch 384PE; format: cell-based; details: CHO cells, room temperature, up to 40 uM
Sequence of hERG (Q12809 whole entry): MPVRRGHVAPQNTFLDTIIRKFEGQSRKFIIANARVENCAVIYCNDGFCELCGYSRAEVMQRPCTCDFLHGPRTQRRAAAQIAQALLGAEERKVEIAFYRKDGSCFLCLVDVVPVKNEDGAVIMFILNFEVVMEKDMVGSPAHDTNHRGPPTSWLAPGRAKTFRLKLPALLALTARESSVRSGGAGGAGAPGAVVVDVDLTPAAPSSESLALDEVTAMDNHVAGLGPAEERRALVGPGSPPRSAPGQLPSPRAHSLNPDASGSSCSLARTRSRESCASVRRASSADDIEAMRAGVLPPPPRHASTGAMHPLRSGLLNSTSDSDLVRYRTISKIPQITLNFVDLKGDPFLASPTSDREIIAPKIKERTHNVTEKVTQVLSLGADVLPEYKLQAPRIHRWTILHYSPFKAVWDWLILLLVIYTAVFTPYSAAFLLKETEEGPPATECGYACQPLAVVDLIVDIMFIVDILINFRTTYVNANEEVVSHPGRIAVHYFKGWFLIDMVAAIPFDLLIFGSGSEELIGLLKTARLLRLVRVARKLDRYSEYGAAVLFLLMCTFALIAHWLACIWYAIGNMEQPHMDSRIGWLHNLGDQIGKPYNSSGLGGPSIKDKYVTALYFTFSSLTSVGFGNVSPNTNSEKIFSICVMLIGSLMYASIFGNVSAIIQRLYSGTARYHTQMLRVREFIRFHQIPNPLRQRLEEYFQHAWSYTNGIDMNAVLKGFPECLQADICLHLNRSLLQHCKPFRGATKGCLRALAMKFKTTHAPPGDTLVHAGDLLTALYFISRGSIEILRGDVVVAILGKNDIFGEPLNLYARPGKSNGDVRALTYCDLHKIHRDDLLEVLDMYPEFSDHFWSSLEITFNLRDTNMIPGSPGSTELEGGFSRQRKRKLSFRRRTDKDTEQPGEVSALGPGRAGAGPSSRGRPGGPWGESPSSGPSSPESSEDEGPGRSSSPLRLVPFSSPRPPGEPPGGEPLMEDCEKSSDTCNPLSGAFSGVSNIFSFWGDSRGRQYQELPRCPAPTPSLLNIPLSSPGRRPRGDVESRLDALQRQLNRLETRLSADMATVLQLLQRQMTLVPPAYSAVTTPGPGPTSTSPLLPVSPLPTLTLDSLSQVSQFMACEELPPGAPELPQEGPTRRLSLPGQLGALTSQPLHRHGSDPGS
Procedure: Experiments were performed on the SyncroPatch 384PE (Nanion Technologies) high throughput patch clamp platform at room temperature and used medium resistance chips with 4 patch holes per site. hERG-expressing Chinese hamster ovary K1 (CHO) cell line was used in assay-ready format and kept in liquid nitrogen until use. 2 vials of cells (10×10^6 cells per vial) were thawed and added to 20 ml Hepes-buffered saline solution (HBSS). HBSS comprised 140 mM NaCl, 4 mM KCl, 10 mM HEPES and 5 mM Glucose (pH 7.4). The internal patch clamp solution was KF 120 mM, KCl 20 mM, HEPES 10 mM, EGTA 10 mM, and 25 μM Escin (pH 7.2). After the initial sealing process was complete, a seal enhancer solution comprising HBSS supplemented with 10 mM CaCl2 and 1 mM MgCl2 was applied to cells. The external solution was then exchanged (4 times) for external patch clamp solution comprising NaCl 80 mM, KCl 4 mM, HEPES 10 mM, CaCl2 2 mM, MgCl2 1 mM, glucose 5 mM, and NMDG 60 mM (pH7.4). All compounds were dispensed from initial 10 mM DMSO stocks. An industry standard +60/−40 mV voltage protocol was applied every 15 seconds. Compounds were tested in a 6-point cumulative assay (final DMSO concentration 0.33%), with a concentration range of 139 nM to 40 uM. Data were analyzed in Genedata Screener®. IC50 values were determined by plotting % inhibition versus log compound concentration and using a one site dose response model. Only wells that passed acceptance criteria for this platform were used in this analysis (30 MegaOhm seal resistance, Z prime >0.4 and current size >0.2 nA).

[7] = target: muscarinic M2 receptor (Homo sapiens (Human), UniProt P08172); assay: Muscarinic M2 receptor binding assay (assay 1); details: [3H]AF-DX 384 2 nM, Cheng Prusoff
Sequence of muscarinic M2 receptor (P08172 whole entry): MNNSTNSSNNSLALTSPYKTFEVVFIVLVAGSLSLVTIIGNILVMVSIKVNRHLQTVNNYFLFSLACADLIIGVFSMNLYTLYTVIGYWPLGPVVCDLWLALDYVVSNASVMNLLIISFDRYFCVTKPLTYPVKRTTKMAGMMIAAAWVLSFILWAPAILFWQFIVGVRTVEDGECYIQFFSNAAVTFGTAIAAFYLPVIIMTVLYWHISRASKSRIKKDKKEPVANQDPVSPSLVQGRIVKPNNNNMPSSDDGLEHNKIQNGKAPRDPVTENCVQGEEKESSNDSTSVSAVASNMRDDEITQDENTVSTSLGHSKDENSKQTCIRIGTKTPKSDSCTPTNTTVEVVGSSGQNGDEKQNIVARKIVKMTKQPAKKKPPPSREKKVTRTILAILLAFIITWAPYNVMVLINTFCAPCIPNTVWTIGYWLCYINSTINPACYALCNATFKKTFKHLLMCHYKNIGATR
Procedure: Cell membrane homogenates (60 μg protein) were incubated for 60 minutes at 22° C. with 2 nM [3H]AF-DX 384 in the absence or presence of the test compound in a buffer containing 50 mM Tris-HCl (pH 7.4), 120 mM NaCl, 5 mM KCl, 5 mM MgCl2, and 1 mM EDTA. Nonspecific binding was determined in the presence of 1 μM atropine. Following incubation, the samples were filtered rapidly under vacuum through glass fiber filters (GF/B, Packard) presoaked with 0.3% PEI and rinsed several times with ice-cold 50 mM Tris-HCl using a 96-sample cell harvester (Unifilter, Packard). The filters were dried then counted for radioactivity in a scintillation counter (Topcount, Packard) using a scintillation cocktail (Microscint 0, Packard). The results were expressed as a percent inhibition of the control radioligand specific binding, from which the Ki was calculated. Data were analyzed using software developed at Cerep (Hill software) and validated by comparison with data generated by the commercial software SigmaPlot®4.0 for Windows® (© 1997 by SPSS Inc.). The inhibition constant, Ki, was calculated using the Cheng Prusoff equation:
where L=concentration of ligand in the assay, and Kd=affinity of the ligand for the receptor. The standard reference compound was methoctramine, which was tested in each experiment at several concentrations to obtain a competition curve from which its IC50 was calculated.

| IC50 ([1]; Homo sapiens, MOLM-13, 168 h) | microsomal CLint at 1 µM ([3]; pH 7.4, HLM CLint) | IC50 [1] | HLM CLint [3] | IC50 [4] | IC50 [5] | Ki [7] | Structure (SMILES) | IC50 [2] | microsomal CLint at 1 µM ([3]; pH 7.4, 1 mg/mL HLM, NADPH, read-out: HLM CLint) | IC50 [6] |
| --- | --- | --- | --- | --- | --- | --- | --- | --- | --- | --- |
| 109 nM | 139 µL/min/mg | – | – | – | – | – | CC(C)N(C(=O)c1cc(F)ccc1-n1cc(C(=O)[C@@H]2CCCN(C(=O)[C@H]3N[C@@H]4CC[C@H]3C4)CC2)c2ccncc21)C(C)C (relative stereo) [Example 45, 2-(3-((R*)-1-((1R,3S,4S)-2-Azabicyclo[2.2.1]heptane-3-carbonyl)azepane-4-carbonyl)-1H-pyrrolo[2,3-c]pyridin-1-yl)-5-fluoro-N,N-diisopropylbenzamide 1·formic acid] | > 10 µM | – | – |
| – | – | 2070 nM | 183 µL/min/mg | – | – | – | CCN(C(=O)c1cc(F)ccc1-n1c(C)c(C(=O)C2CCN(C(=O)[C@@H]3CCC(C)(C)N3)CC2)c2ccncc21)C(C)C (single isomer, unassigned) [Example 50-1] | > 10 µM | – | – |
| – | – | 3270 nM | 116 µL/min/mg | – | – | – | Cc1c(C(=O)[C@@H]2CCN(C(=O)[C@H]3NC[C@@H]4C[C@@H]43)[C@@H](C)C2)c2ccncc2n1-c1ccc(F)cc1C(=O)N(CC(F)(F)F)C(C)C (single isomer, unassigned) [Example 53-1, 2-(3-((2R*,4S*)-1-((1S,2S,5R)-3-Azabicyclo[3.1.0]hexane-2-carbonyl)-2-methylpiperidine-4-carbonyl)-2-methyl-1H-pyrrolo[2,3-c]pyridin-1-yl)-5-fluoro-N-isopropyl-N-(2,2,2-trifluoroethyl)benzamide] | > 10 µM | – | – |
| 476 nM | 38 µL/min/mg | – | – | 345 nM | 626 nM | – | CC(C)N(C(=O)c1cc(F)ccc1-n1cc(C(=O)C2CN(C(=O)[C@H]3N[C@@H]4CC[C@H]3C4)C2)c2ccnnc21)C(C)C [Example 14, 2-(5-(1-((1R,3S,4S)-2-Azabicyclo[2.2.1]heptane-3-carbonyl)azetidine-3-carbonyl)-7H-pyrrolo[2,3-c]pyridazin-7-yl)-5-fluoro-N,N-diisopropylbenzamide 1·formic acid] | > 10 µM | – | – |
| 58 nM | 26 µL/min/mg | – | – | 57 nM | – | 200 nM | CCN(C(=O)c1cc(F)ccc1-n1cc(C(=O)C2CCN(C(=O)[C@H]3NC4CCC3CC4)CC2)c2ccncc21)C(C)C [Example 29, (S)-2-(3-(1-(2-Azabicyclo[2.2.2]octane-3-carbonyl)piperidine-4-carbonyl)-1H-pyrrolo[2,3-c]pyridin-1-yl)-N-ethyl-5-fluoro-N-isopropylbenzamide] | > 10 µM | – | > 40 µM |
| 297 nM | 5 µL/min/mg | – | – | 146 nM | 412 nM | – | C[C@@H]1COC[C@H](C)N1C(=O)c1cc(F)ccc1-n1cc(C(=O)C2CCN(C(=O)[C@H]3N[C@@H]4CC[C@H]3C4)CC2)c2ccncc21 [Example 35, (1-((1R,3S,4S)-2-Azabicyclo[2.2.1]heptane-3-carbonyl)piperidin-4-yl)(1-(2-((3R,5S)-3,5-dimethylmorpholine-4-carbonyl)-4-fluorophenyl)-1H-pyrrolo[2,3-c]pyridin-3-yl)methanone] | > 10 µM | – | – |
| 71 nM | 106 µL/min/mg | – | – | 88 nM | – | – | Cc1c(C(=O)C2CCN(C(=O)[C@@H]3CC[C@H](C)N3)CC2)c2ccncc2n1-c1ccc(F)cc1C(=O)N(C(C)C)C(C)C [Example 60, 5-Fluoro-N,N-diisopropyl-2-(2-methyl-3-(1-((2S,5S)-5-methylpyrrolidine-2-carbonyl)piperidine-4-carbonyl)-1H-pyrrolo[2,3-c]pyridin-1-yl)benzamide] | > 10 µM | – | > 40 µM |
| 92 nM | 83 µL/min/mg | – | – | 114 nM | – | – | Cc1c(C(=O)C2CCN(C(=O)[C@@H]3CC[C@@H](C)N3)CC2)c2ccncc2n1-c1ccc(F)cc1C(=O)N(C(C)C)C(C)C [Example 61, 5-Fluoro-N,N-diisopropyl-2-(2-methyl-3-(1-((2S,5R)-5-methylpyrrolidine-2-carbonyl)piperidine-4-carbonyl)-1H-pyrrolo[2,3-c]pyridin-1-yl)benzamide] | > 10 µM | – | > 40 µM |

| Structure (SMILES) | IC50 ([1]; Homo sapiens, MOLM-13, 168 h) | microsomal CLint at 1 µM ([3]; pH 7.4, HLM CLint) | IC50 [1] | HLM CLint [3] | IC50 [4] | IC50 [5] | Ki [7] | IC50 [2] | microsomal CLint at 1 µM ([3]; pH 7.4, 1 mg/mL HLM, NADPH, read-out: HLM CLint) | IC50 [6] |
| --- | --- | --- | --- | --- | --- | --- | --- | --- | --- | --- |
| Cc1c(C(=O)C2CCN(C(=O)[C@@H]3CCC4(CC4)N3)CC2)c2ccncc2n1-c1ccc(F)cc1C(=O)N1[C@H](C)COC[C@H]1C (single isomer, unassigned) [Example 58-1] | – | – | > 10000 nM | – | – | – | – | > 10 µM | 128 µL/min/mg | – |
